Measured values reported in ChEMBL document CHEMBL2413072, “Synthesis and in vitro anticancer studies of novel C-2 arylidene congeners of lantadenes” (2013).
Activity calls are given as the source filed them. The calls are words filed in the database; no cut-off is given here.

Legend:
Type in all cases: functional
Malme-3M [1] = test: Growth inhibition of human MALME-3M cells assessed as cell growth at 10 uM by sulforhodamine B assay; conditions: read-out: Activity
MDA-MB-435 = test: Growth inhibition of human MDA-MB-435 cells assessed as cell growth at 10 uM by sulforhodamine B assay; conditions: read-out: Activity
[2] = Growth inhibition of human HCC2998 cells assessed as cell growth at 10 uM by sulforhodamine B assay; conditions: HCC 2998, read-out: Activity
MDA-MB-231 = test: Growth inhibition of human MDA-MB-231 cells assessed as cell growth at 10 uM by sulforhodamine B assay; conditions: read-out: Activity
SK-MEL-5 [3] = test: Growth inhibition of human SK-MEL-5 cells assessed as growth inhibition at 10 uM by sulforhodamine B assay; conditions: read-out: GI
K562 = test: Growth inhibition of human K562 cells assessed as cell growth at 10 uM by sulforhodamine B assay; conditions: read-out: Activity
RPMI-8226 [4] = test: Growth inhibition of human RPMI8226 cells assessed as growth inhibition at 10 uM by sulforhodamine B assay; conditions: read-out: GI
HOP-92 = test: Growth inhibition of human HOP92 cells assessed as cell growth at 10 uM by sulforhodamine B assay; conditions: read-out: Activity
COLO 205 = test: Growth inhibition of human COLO205 cells assessed as growth inhibition at 10 uM by sulforhodamine B assay; conditions: read-out: GI
[5] = Growth inhibition of human Hs 578T cells assessed as growth inhibition at 10 uM by sulforhodamine B assay; conditions: read-out: GI
SNB-75 [6] = test: Growth inhibition of human SNB75 cells assessed as growth inhibition at 10 uM by sulforhodamine B assay; conditions: read-out: GI
HCT-116 = test: Growth inhibition of human HCT116 cells assessed as cell growth at 10 uM by sulforhodamine B assay; conditions: read-out: Activity
SNB-75 [7] = test: Growth inhibition of human SNB75 cells assessed as cell growth at 10 uM by sulforhodamine B assay; conditions: read-out: Activity
Malme-3M [8] = test: Growth inhibition of human MALME-3M cells assessed as growth inhibition at 10 uM by sulforhodamine B assay; conditions: read-out: GI
HL-60(TB) = test: Growth inhibition of human HL-60(TB) cells assessed as growth inhibition at 10 uM by sulforhodamine B assay
OVCAR-3 = test: Growth inhibition of human OVCAR3 cells assessed as growth inhibition at 10 uM by sulforhodamine B assay; conditions: read-out: GI
LOX IMVI [9] = test: Growth inhibition of human LOXIMVI cells assessed as growth inhibition at 10 uM by sulforhodamine B assay; conditions: read-out: GI
UACC-62 = test: Growth inhibition of human UACC62 cells assessed as cell growth at 10 uM by sulforhodamine B assay; conditions: read-out: Activity
[10] = Growth inhibition of human NCI-ADR-RES cells assessed as cell growth at 10 uM by sulforhodamine B assay; conditions: read-out: Activity
HOP-62 = test: Growth inhibition of human HOP62 cells assessed as cell growth at 10 uM by sulforhodamine B assay; conditions: read-out: Activity
A498 = test: Growth inhibition of human A498 cells assessed as cell growth at 10 uM by sulforhodamine B assay; conditions: read-out: Activity
OVCAR-5 = test: Growth inhibition of human OVCAR5 cells assessed as growth inhibition at 10 uM by sulforhodamine B assay; conditions: read-out: GI
[11] = Growth inhibition of human EKVX cells assessed as cell growth at 10 uM by sulforhodamine B assay; conditions: read-out: Activity
NCI-H322M = test: Growth inhibition of human NCI-H322M cells assessed as growth inhibition at 10 uM by sulforhodamine B assay
MOLT-4 = test: Growth inhibition of human MOLT4 cells assessed as cell growth at 10 uM by sulforhodamine B assay; conditions: read-out: Activity
M14 [12] = test: Growth inhibition of human M14 cells assessed as growth inhibition at 10 uM by sulforhodamine B assay; conditions: read-out: GI
SF-268 = test: Growth inhibition of human SF268 cells assessed as cell growth at 10 uM by sulforhodamine B assay; conditions: read-out: Activity
SF-539 = test: Growth inhibition of human SF539 cells assessed as cell growth at 10 uM by sulforhodamine B assay; conditions: read-out: Activity
LOX IMVI [13] = test: Growth inhibition of human LOXIMVI cells assessed as cell growth at 10 uM by sulforhodamine B assay; conditions: read-out: Activity
TK-10 = test: Growth inhibition of human TK10 cells assessed as growth inhibition at 10 uM by sulforhodamine B assay; conditions: read-out: GI
OVCAR-4 = test: Growth inhibition of human OVCAR4 cells assessed as growth inhibition at 10 uM by sulforhodamine B assay; conditions: read-out: GI
SW-620 = test: Growth inhibition of human SW620 cells assessed as growth inhibition at 10 uM by sulforhodamine B assay; conditions: read-out: GI
IGROV-1 = test: Growth inhibition of human IGROV1 cells assessed as cell growth at 10 uM by sulforhodamine B assay; conditions: read-out: Activity
NCI-H460 [14] = test: Growth inhibition of human NCI-H460 cells assessed as cell growth at 10 uM by sulforhodamine B assay; conditions: read-out: Activity
HCT-15 = test: Growth inhibition of human HCT15 cells assessed as growth inhibition at 10 uM by sulforhodamine B assay; conditions: read-out: GI
SK-MEL-5 [15] = test: Growth inhibition of human SK-MEL-5 cells assessed as cell growth at 10 uM by sulforhodamine B assay; conditions: read-out: Activity
ACHN = test: Growth inhibition of human ACHN cells assessed as cell growth at 10 uM by sulforhodamine B assay; conditions: read-out: Activity
RPMI-8226 [16] = test: Growth inhibition of human RPMI8226 cells assessed as cell growth at 10 uM by sulforhodamine B assay; conditions: read-out: Activity
SR = test: Growth inhibition of human SR cells assessed as growth inhibition at 10 uM by sulforhodamine B assay; conditions: read-out: GI
PC-3 = test: Growth inhibition of human PC3 cells assessed as cell growth at 10 uM by sulforhodamine B assay; conditions: read-out: Activity
NCI-H460 [17] = test: Growth inhibition of human NCI-H460 cells assessed as growth inhibition at 10 uM by sulforhodamine B assay; conditions: read-out: GI
M14 [18] = test: Growth inhibition of human M14 cells assessed as cell growth at 10 uM by sulforhodamine B assay; conditions: read-out: Activity
SK-MEL-2 = test: Growth inhibition of human SK-MEL-2 cells assessed as growth inhibition at 10 uM by sulforhodamine B assay; conditions: read-out: GI
T47D = test: Growth inhibition of human T47D cells assessed as growth inhibition at 10 uM by sulforhodamine B assay; conditions: read-out: GI
RXF 393 [19] = test: Growth inhibition of human RXF393 cells assessed as cell growth at 10 uM by sulforhodamine B assay; conditions: read-out: Activity
UO-31 = test: Growth inhibition of human UO31 cells assessed as cell growth at 10 uM by sulforhodamine B assay; conditions: read-out: Activity
CCRF-CEM = test: Growth inhibition of human CCRF-CEM cells assessed as growth inhibition at 10 uM by sulforhodamine B assay; conditions: read-out: GI
RXF 393 [20] = test: Growth inhibition of human RXF393 cells assessed as growth inhibition at 10 uM by sulforhodamine B assay; conditions: read-out: GI
SF-295 = test: Growth inhibition of human SF295 cells assessed as cell growth at 10 uM by sulforhodamine B assay; conditions: read-out: Activity

SMILES: CC(C)=CC(=O)O[C@@H]1CC(C)(C)C[C@H]2C3=CC[C@@H]4[C@@]5(C)CCC(=O)C(C)(C)[C@@H]5CC[C@@]4(C)[C@]3(C)CC[C@@]12C(=O)O
- growth at 10 µM (Malme-3M [1]): 85.4%
- growth at 10 µM (MDA-MB-435): 89.6%
- growth at 10 µM [2]: 52.8%
- growth at 10 µM (MDA-MB-231): 71.5%
- inhibition of growth at 10 µM (SK-MEL-5 [3]): 52.1%
- growth at 10 µM (K562): 45%
- inhibition of growth at 10 µM (RPMI-8226 [4]): 80.4%
- growth at 10 µM (HOP-92): 28.4%
- inhibition of growth at 10 µM (COLO 205): 29%
- inhibition of growth at 10 µM [5]: 20.4%
- inhibition of growth at 10 µM (SNB-75 [6]): 30%
- growth at 10 µM (HCT-116): 26.6%
- growth at 10 µM (SNB-75 [7]): 70%
- inhibition of growth at 10 µM (Malme-3M [8]): 14.6%
- inhibition of growth at 10 µM (HL-60(TB); read-out: GI): 89.8%
- inhibition of growth at 10 µM (OVCAR-3): 38.7%
- inhibition of growth at 10 µM (LOX IMVI [9]): 48.8%
- growth at 10 µM (UACC-62): 57.8%
- growth at 10 µM [10]: 60%
- growth at 10 µM (HOP-62): 60.2%
- growth at 10 µM (A498): 101%
- inhibition of growth at 10 µM (OVCAR-5): < 10%
- growth at 10 µM [11]: 41.2%
- inhibition of growth at 10 µM (NCI-H322M; read-out: GI): 46%
- growth at 10 µM (MOLT-4): 36.5%
- inhibition of growth at 10 µM (M14 [12]): 19.7%
- growth at 10 µM (SF-268): 73%
- growth at 10 µM (SF-539): 65%
- growth at 10 µM (LOX IMVI [13]): 51.2%
- inhibition of growth at 10 µM (TK-10): 21.9%
- inhibition of growth at 10 µM (OVCAR-4): 28.7%
- inhibition of growth at 10 µM (SW-620): 37.3%
- growth at 10 µM (IGROV-1): 62.3%
- growth at 10 µM (NCI-H460 [14]): 47.1%
- inhibition of growth at 10 µM (HCT-15): 81.4%
- growth at 10 µM (SK-MEL-5 [15]): 47.9%
- growth at 10 µM (ACHN): 43.9%
- growth at 10 µM (RPMI-8226 [16]): 19.6%
- inhibition of growth at 10 µM (SR): 47.9%
- growth at 10 µM (PC-3): 36.9%
- inhibition of growth at 10 µM (NCI-H460 [17]): 52.9%
- growth at 10 µM (M14 [18]): 80.3%
- inhibition of growth at 10 µM (SK-MEL-2): 21.8%
- inhibition of growth at 10 µM (T47D): 38.4%
- growth at 10 µM (RXF 393 [19]): 84.6%
- growth at 10 µM (UO-31): 42%
- inhibition of growth at 10 µM (CCRF-CEM): 74.7%
- inhibition of growth at 10 µM (RXF 393 [20]): 15.4%

SMILES: C/C=C(/C)C(=O)O[C@@H]1CC(C)(C)C[C@H]2C3=CC[C@@H]4[C@@]5(C)CC[C@H](O)C(C)(C)[C@@H]5CC[C@@]4(C)[C@]3(C)CC[C@@]12C(=O)O [Reduced Lantadene A]
- growth at 10 µM (Malme-3M [1]): 35.2%
- growth at 10 µM (MDA-MB-435): 64.9%
- growth at 10 µM [2]: 26.4%
- growth at 10 µM (MDA-MB-231): 22.2%
- inhibition of growth at 10 µM (SK-MEL-5 [3]): 46.8%
- growth at 10 µM (K562): 35.9%
- inhibition of growth at 10 µM (RPMI-8226 [4]): 78.9%
- growth at 10 µM (HOP-92): -54.2%
- inhibition of growth at 10 µM (COLO 205): 71.8%
- inhibition of growth at 10 µM (SNB-75 [6]): 88%
- growth at 10 µM (HCT-116): 20%
- growth at 10 µM (SNB-75 [7]): 11.9%
- inhibition of growth at 10 µM (Malme-3M [8]): 64.8%
- growth inhibition (GI) (HL-60(TB)): Active
- inhibition of growth at 10 µM (OVCAR-3): 68%
- inhibition of growth at 10 µM (LOX IMVI [9]): 57.3%
- growth at 10 µM (UACC-62): -28.1%
- growth at 10 µM [10]: 69.8%
- growth at 10 µM (HOP-62): 24.3%
- growth at 10 µM (A498): -31.8%
- inhibition of growth at 10 µM (OVCAR-5): 36%
- growth at 10 µM [11]: 36.5%
- growth inhibition (GI) (NCI-H322M): Active
- growth at 10 µM (SF-295): -14.4%
- growth at 10 µM (MOLT-4): 41.4%
- inhibition of growth at 10 µM (M14 [12]): 71.3%
- growth at 10 µM (SF-268): 25.9%
- growth at 10 µM (SF-539): 43%
- growth at 10 µM (LOX IMVI [13]): 42.7%
- inhibition of growth at 10 µM (TK-10): 33.2%
- inhibition of growth at 10 µM (OVCAR-4): 36.8%
- inhibition of growth at 10 µM (SW-620): 60.9%
- growth at 10 µM (IGROV-1): 35.1%
- growth at 10 µM (NCI-H460 [14]): 35.1%
- inhibition of growth at 10 µM (HCT-15): 78.8%
- growth at 10 µM (SK-MEL-5 [15]): 53.2%
- growth at 10 µM (ACHN): 8.12%
- growth at 10 µM (RPMI-8226 [16]): 21.1%
- inhibition of growth at 10 µM (SR): 38.1%
- growth at 10 µM (PC-3): 33.3%
- inhibition of growth at 10 µM (NCI-H460 [17]): 64.9%
- growth at 10 µM (M14 [18]): 28.7%
- inhibition of growth at 10 µM (SK-MEL-2): 45.9%
- inhibition of growth at 10 µM (T47D): 24.3%
- growth at 10 µM (RXF 393 [19]): 22.8%
- growth at 10 µM (UO-31): -26%
- inhibition of growth at 10 µM (CCRF-CEM): 54.2%
- inhibition of growth at 10 µM (RXF 393 [20]): 77.2%
